According to patent publication US20130096098A1, “Light Insensitive Silver(i) Cyanoximates As Antimicrobial Agents For Indwelling Medical Devices” (MISSOURI STATE UNIVERSITY, priority 2011, published 2013):
Like-named read-outs stand apart in the source and are kept apart here.

Legend:
[1] = system: inoculated microorganisms; experiment: Antibacterial tests in solid state: soaked dried filter paper disks on agar plates; type: cell-based; conditions: deposited on filter papers from DMF 10 mg/mL, 20 μL; 37° C., 24 h
Source text: (§1) Antimicrobial Activity Studies. Bacterial Strains and Growing Conditions. The strains of bacteria were obtained from Polish Collection of Microorganisms (PCM) of the Institute of Immunology and Experimental Therapy of Polish Academy of Sciences and were used throughout this study. Both Gram-negative and Gram-positive bacteria, as well as yeasts, commonly isolated from patients suffering implant-related infections, were chosen for experiments. They included Escherichia coli PCM 1144 (ATCC #10536), Klebsiella pneumoniae PCM 57, Proteus sp. PCM 542 (ATCC #13315), Pseudomonas aeruginosa PCM 2563 (ATCC #15442), Streptococcus mutans PCM 2502, Staphylococcus aureus PCM 2602 (ATCC #6538), Enterococcus hirae PCM 2559 (ATCC #10541), Mycobacterium fortuitum PCM 672, Candida albicans PCM 2566 (ATCC #10231). In addition, several multidrug-resistant bacterial strains isolated from patients with nosocomial infections K. pneumoniae 244, P. aeruginosa 2314, AMA, Enterococcus faecium VRE (vancomycin-resistant), Streptococcus pneumoniae PCI, S. aureus MRSA (methicillin-resistant), S. aureus MRSC (coagulase-negative methicillin-resistant), were also included in the in vitro testing. Bacteria were cultivated on sugar broth at 37° C. for 24 h in aerobic conditions, and prior to use in tests, cells were diluted with the same medium to obtain suspensions of about 2×10^5 cfu/mL.
Antibacterial Tests in Solid State: Soaked Dried Paper Disks and Pellets. Solutions (or suspensions if the compound was not completely solubilized) of studied Ag(I) cyanoximates in DMF at 10 mg/mL concentration were prepared and 20 μL of it was placed on filter paper discs (diameter 12 mm). These discs were dried for ˜2 h in the dark prior to testing where each filter was placed on agar plates with inoculated microorganisms, which were then incubated at 37° C. for 24 h. Thereafter, microorganisms' growth inhibition zone (if present) was measured (in mm).

Mycobacterium fortuitum = experiment: Antibacterial tests in solid state: pressed AgL pellets on agar plates; type: cell-based
Source text: as §1
(§2) Also, Ag(I) cyanoximates were pressed into 12 mm in diameter pellets using a Carver 20 tons hydraulic press. The method of testing pellets was similar to the one described above. Solid pellets of AgL were carefully placed on agar plates with inoculated bacteria. The exposition time was 24 h at 37° C., after which inhibition zones were measured and results were documented by digital photography.

Pseudomonas aeruginosa = experiment: as above; type: cell-based
Source text: as §1, §2

[2] = UV-light stability studies, low-pressure Hg lamp 254 nm; type: physicochemical
Method: Photophysical Measurements. Light sensitivity and stability of synthesized Ag(I) cyanoximates was studied at 296 K using a low-pressure Hg lamp with >85% output at λmax=254 nm where the intensity of light was measured with a UVX radiometer (UK). After 4 min warm-up time, this lamp generated a steady flux of UV-radiation that was equal to the dose of 10.13 J/cm^2 within 30 min. Prior to these investigations, complexes were thoroughly dried under high vacuum (<10^−4 Torr) and ground into a powder using an agate mortar. This made it easy to apply these compounds to paper, adhesive tape, or cardboard. Samples of complex were spread on white cardboard with an exposed circular area (via a mask) of ˜3 cm. The radiation source was positioned 1 cm from the sample. A pristine white silver chloride prepared in the dark was used as a control substance to access the light stability of silver(I) cyanoximates. Digital pictures of irradiated samples were taken every 30 min using a stationary digital camera (Kodak DX7630; 6.1 Mpx), and native images were cropped to square shape without any contrast or brightness editing using Samsung Digimax Viewer 2.0 software.

bacterial strains = experiment: Antibacterial tests in solutions, microplate Alamar Blue assay (MIC); type: cell-based; conditions: stock in DMSO, 37° C., 48 h, tested infection agents
Source text: Antimicrobial Activity Studies. Bacterial Strains and Growing Conditions. The strains of bacteria were obtained from Polish Collection of Microorganisms (PCM) of the Institute of Immunology and Experimental Therapy of Polish Academy of Sciences and were used throughout this study. Both Gram-negative and Gram-positive bacteria, as well as yeasts, commonly isolated from patients suffering implant-related infections, were chosen for experiments. They included Escherichia coli PCM 1144 (ATCC #10536), Klebsiella pneumoniae PCM 57, Proteus sp. PCM 542 (ATCC #13315), Pseudomonas aeruginosa PCM 2563 (ATCC #15442), Streptococcus mutans PCM 2502, Staphylococcus aureus PCM 2602 (ATCC #6538), Enterococcus hirae PCM 2559 (ATCC #10541), Mycobacterium fortuitum PCM 672, Candida albicans PCM 2566 (ATCC #10231). […]
Antibacterial Tests in Solutions. The antibacterial activities of synthesized Ag(I) cyanoximates were determined against bacterial strains by the microplate Alamar Blue assay. […] The fluorescence was measured using Victor^2 apparatus (Wallac, Perkin-Elmer), and the experiment was repeated three times. […] Means and standard error values were determined using the Microsoft Excel.

[3] = 12 mm pressed pellets, 24 h at 37° C., FIG. 10

| Molecule | effect on bacterial growth on solid media (inhibition zones) [1] | growth inhibition zone (Mycobacterium fortuitum; [3]) | growth inhibition zone (Pseudomonas aeruginosa; [3]) | stability toward short wavelength UV-radiation [2] | other results |
| --- | --- | --- | --- | --- | --- |
| N#CC(=N[O-])c1nc2ccccc2o1.[Ag+] [Ag(BOCO), 2-(Oximido)-2-benzoxazoleacetonitrile Silver(I)] | exhibit antimicrobial activity in the solid state | clear inhibition zones | clear inhibition zones |  |  |
| Cn1c(C(C#N)=N[O-])nc2ccccc21.[Ag+] [Ag(BIMCO), Silver(I) α-Oximido-(2-[N-methyl]benzoimidazolyl)acetonitrile] | exhibit antimicrobial activity in the solid state |  |  |  |  |
| Silver(I) α-Oximido-(acetamide)acetonitrile [Ag(ACO)] |  |  |  | resistance |  |
| CCOC(=O)C(C#N)=N[O-].[Ag+] [Ag(ECO), Silver(I) α-Oximido-(ethylacetoxy)acetonitrile] | exhibit antimicrobial activity in the solid state | clear inhibition zones | clear inhibition zones |  |  |
| Silver(I) α-Oximido-(2-pivaloyl)acetonitrile [Ag(PiCO)] | exhibit antimicrobial activity in the solid state |  |  |  | minimal inhibitory concentration (MIC), ranking (bacterial strains): lowest MIC value |
| [Cl][Ag] [AgC1, silver chloride, reference compound] |  |  |  | completely darken |  |
| CN(C)C(=O)C(C#N)=N[O-].[Ag+] [Ag(DCO), Silver(I) α-Oximido-([N,N-dimethylamine]acetamide)acetonitrile] | exhibit antimicrobial activity in the solid state |  |  | resistance | minimal inhibitory concentration (MIC), ranking (bacterial strains): lowest MIC value; growth inhibition zone (Mycobacterium fortuitum): clear inhibition zones; growth inhibition zone (Pseudomonas aeruginosa): clear inhibition zones |
| N#CC(=N[O-])C(=O)c1ccccc1.[Ag+] [Ag(BCO), Silver(I) α-Oximido-(2-benzoyl)acetonitrile] | exhibit antimicrobial activity in the solid state |  |  |  |  |
| Silver(I) Nitrosodicyanomethanide [Ag(CCO)] | exhibit antimicrobial activity in the solid state | clear inhibition zones | clear inhibition zones |  | stability toward short wavelength UV-radiation ([2]; solid powders, 254 nm, 296 K, FIG. 8): resistance |
